Experimental data from article PMC3500254, “Potent Inhibition of Late Stages of Hepadnavirus Replication by a Modified Cell Penetrating Peptide” (PLoS ONE, 2012).

What was measured:
[1] = test system: Duck Hepatitis B Virus (DHBV); assay: Intracellular viral RNA and DNA replicative forms in infected PDH (Northern and Southern blot); type: cell-based; conditions: 5 days, 3-TC as control
Method: (§1) To determine whether the decrease in DHBV secretion is caused by an inhibition of virus replication, LMH-D2 cells and PDHs were treated with different concentration of Deca-(Arg)8 followed by quantification of viral RNA and intracellular DNA replication intermediates by Northern and Southern blot, respectively. As a control, cells were treated by 3-TC, which is a specific inhibitor of the DHBV polymerase, [33]. […] An unspecific effect on transcription can be excluded as mRNA synthesis in transfected LMH-D2 cells was not impaired.
(§2) Figure 4 Effect of Deca-(Arg)8 on the intracellular hepadnavirus intermediate replicative forms. Infected PDH (A), and stably DHBV-transfected LMH-D2 (B) cells were treated with different amounts of Deca-(Arg)8 ranking from 0.5 µM to 2 µM for 5 days. At the end of treatment, the cells were harvested and lysed for DNA and RNA extraction. […] For the Northern blot the level of DHBV RNA was normalized on the GAPDH RNA amount. […] Bands corresponding to the expected size of relaxed circular (RC), linear (L), single-stranded (SS) and covalently closed circular (ccc) DHBV DNA are indicated. […]
(§3) Cells supernatants were harvested daily, spotted onto positively charged nylon membrane and extracellular DHBV DNA was detected in supernatant of cells by dot blot hybridization assay using a full-length ^32P-labelled DHBV probe as described previously. […]

[2] = test system: Duck Hepatitis B Virus (DHBV); assay: Intracellular viral RNA and DNA replicative forms in LMH-D2 cells (Northern and Southern blot); type: cell-based; conditions: 5 days, Deca-(Arg)8 at 2 µM, 3-TC as control, Northern blot normalized on GAPDH RNA
Method: as §1, §2, §3

Q: Which “viral RNA levels” value ([1]; PDH, Deca-(Arg)8 at 2 µM, Northern blot normalized on GAPDH RNA) does the source give for `Nc1ccn([C@@H]2CS[C@H](CO)O2)c(=O)n1` [3-TC, Lamivudine] here?
A: reduction of viral mRNA synthesis

Q: What about the cccDNA ([1]; infected PDH, Deca-(Arg)8 0.5 µM to 2 µM, Southern blot) of the same compound?
A: prevented cccDNA formation

Q: What about the “viral RNA levels” value [2] of the same compound?
A: not impaired
